Test results from patent US12364690B2, “Therapeutic agent for bile duct cancer” (NATIONAL CANCER CENTER, priority 2015, dated 2025).
Like-named read-outs stand apart in the source and are kept apart here.

How the values were obtained:
[1] = test system: NIH3T3 cell line transfected with the FGFR2 fusion gene; assay: Immunoblot (Western blot) analysis of downstream signal of FGFR2 fusion gene; type: cell-based, mouse; conditions: final concentration of FGFR inhibitor 0.2 μM or 0.5 μM, FIG. 3
Method: First, the wild-type FGFR2 fusion gene or KD mutant FGFR2 fusion gene was transfected into the mouse fibroblast cell line NIH3T3 using the retrovirus, and the obtained cell line was cultured in a liquid culture medium. The cultured cell line was subjected to serum starvation, and then treated with a culture medium containing an FGFR inhibitor before extracting the total proteins. Herein, the protein encoded by FGFR2-BICC1 type2, the protein encoded by FGFR2-TXLNA and the protein encoded by FGFR2-KCTD1 are shown in SEQ ID NOs: 6, 2 and 4, respectively.
Next, the NIH3T3 cell line transfected with the FGFR2 fusion gene was subjected to Western blot analysis after adding the FGFR inhibitor to the cell line (the final concentration of the FGFR inhibitor: 0.2 μM or 0.5 μM) and extracting the total proteins similarly.

[2] = target: NIH3T3 cell transfected with FGFR2-BICC1 type2 (Homo sapiens, UniProt P21802, DEL126-151/R152G)
Method: (§1) Using the following apparatus, the activity of FGFR inhibitors on the transformation capacity of FGFR2 fusion polypeptide was evaluated.

[3] = target: NIH3T3 cells transfected with FGFR2-TXLNA (Homo sapiens, UniProt P21802, DEL126-151/R152G); conditions: final concentration 0.2 μM; soft agar; FIG. 5 and FIG. 6
Method: as §1

[4] = target: NIH3T3 cells transfected with FGFR2-KCTD1 (Homo sapiens, UniProt P21802); conditions: final concentration 0.2 μM; soft agar; FIG. 5 and FIG. 6
Method: as §1

[5] = Relative body weight in transplant model mice (safety of dosage); type: in vivo, mouse; conditions: 6.25, 12.5, 25 and 50 mg/kg orally once a day; dosage judged as safe
Method: Based on the tumor volume on the first day of administration, the mice were grouped so that mean values of the tumor volume of the groups were nearly equal to each other. […]. The Compound A solution was continuously administered orally to the mice in the Compound A administration group once a day at a dosage of 20 mL/kg. On the other hand, only the solvent (water for injection) was similarly administered to the mice in the control group. The Administration was carried out to FGFR2-BICC1 type2 or FGFR2-KCTD1 transplant model mice for 7 days and to FGFR2-TXLNA transplant model mice for 11 days.
On the first day and the last day of the administration, body weight was measured for each mice in the control group and the Compound A administration group. The ratio of the body weight on the last day to the body weight on the first day (relative body weight: RBW) was calculated. When the RBW of the Compound A administration group/the RBW of the control group was 0.9 or more, the dosage was judged as safe. The corresponding dosage was 6.25, 12.5, 25 and 50 mg/kg.

NIH3T3 cell transfected with FGFR2-BICC1 type2, sequence (P21802 with tags, fused parts or gaps isoform P21802-22 DEL37-62/R63G): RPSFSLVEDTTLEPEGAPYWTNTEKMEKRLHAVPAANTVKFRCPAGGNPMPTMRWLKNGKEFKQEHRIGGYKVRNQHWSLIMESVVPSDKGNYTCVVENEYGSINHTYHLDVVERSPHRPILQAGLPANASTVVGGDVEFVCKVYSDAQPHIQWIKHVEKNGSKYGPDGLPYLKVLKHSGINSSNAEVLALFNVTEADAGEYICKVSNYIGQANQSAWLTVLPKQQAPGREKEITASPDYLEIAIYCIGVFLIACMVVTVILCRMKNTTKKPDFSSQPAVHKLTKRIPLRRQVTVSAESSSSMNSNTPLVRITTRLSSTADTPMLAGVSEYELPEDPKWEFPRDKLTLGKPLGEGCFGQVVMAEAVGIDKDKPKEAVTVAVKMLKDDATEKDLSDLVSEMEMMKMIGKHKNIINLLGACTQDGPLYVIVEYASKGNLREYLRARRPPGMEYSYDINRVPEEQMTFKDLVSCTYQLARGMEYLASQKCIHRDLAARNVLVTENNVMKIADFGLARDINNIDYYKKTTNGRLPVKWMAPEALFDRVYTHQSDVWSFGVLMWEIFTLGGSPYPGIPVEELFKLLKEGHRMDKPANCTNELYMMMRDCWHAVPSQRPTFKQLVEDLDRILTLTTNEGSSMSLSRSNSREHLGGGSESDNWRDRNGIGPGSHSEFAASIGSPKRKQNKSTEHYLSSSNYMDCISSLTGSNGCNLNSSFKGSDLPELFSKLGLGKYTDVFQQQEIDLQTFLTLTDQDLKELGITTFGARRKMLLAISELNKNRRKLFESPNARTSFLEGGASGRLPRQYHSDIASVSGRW
NIH3T3 cells transfected with FGFR2-TXLNA, sequence (P21802 with tags, fused parts or gaps isoform P21802-22 DEL37-62/R63G): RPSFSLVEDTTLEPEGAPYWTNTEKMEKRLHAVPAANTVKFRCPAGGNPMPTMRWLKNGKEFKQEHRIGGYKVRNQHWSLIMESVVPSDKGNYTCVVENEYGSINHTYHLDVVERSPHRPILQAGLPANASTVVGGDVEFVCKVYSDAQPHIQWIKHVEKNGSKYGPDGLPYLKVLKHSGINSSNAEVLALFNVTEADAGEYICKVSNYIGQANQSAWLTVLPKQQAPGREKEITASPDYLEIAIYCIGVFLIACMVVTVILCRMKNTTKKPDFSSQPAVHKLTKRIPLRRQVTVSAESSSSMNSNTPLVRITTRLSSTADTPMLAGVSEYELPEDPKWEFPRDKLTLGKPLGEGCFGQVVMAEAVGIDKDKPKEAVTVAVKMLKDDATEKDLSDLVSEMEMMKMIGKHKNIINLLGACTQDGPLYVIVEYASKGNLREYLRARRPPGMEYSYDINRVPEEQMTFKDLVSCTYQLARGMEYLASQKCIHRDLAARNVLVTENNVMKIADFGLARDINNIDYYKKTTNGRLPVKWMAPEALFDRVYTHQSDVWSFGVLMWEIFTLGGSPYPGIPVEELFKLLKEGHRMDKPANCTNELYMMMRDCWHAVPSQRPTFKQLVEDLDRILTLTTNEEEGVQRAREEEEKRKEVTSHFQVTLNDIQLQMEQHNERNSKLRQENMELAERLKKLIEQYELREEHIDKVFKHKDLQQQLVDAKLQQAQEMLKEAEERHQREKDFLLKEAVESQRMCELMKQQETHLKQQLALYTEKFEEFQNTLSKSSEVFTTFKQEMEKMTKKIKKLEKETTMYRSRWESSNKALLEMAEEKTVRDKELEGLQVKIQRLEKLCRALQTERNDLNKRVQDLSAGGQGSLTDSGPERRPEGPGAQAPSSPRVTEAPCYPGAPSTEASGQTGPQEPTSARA
NIH3T3 cells transfected with FGFR2-KCTD1, sequence (P21802 with tags, fused parts or gaps isoform P21802-22): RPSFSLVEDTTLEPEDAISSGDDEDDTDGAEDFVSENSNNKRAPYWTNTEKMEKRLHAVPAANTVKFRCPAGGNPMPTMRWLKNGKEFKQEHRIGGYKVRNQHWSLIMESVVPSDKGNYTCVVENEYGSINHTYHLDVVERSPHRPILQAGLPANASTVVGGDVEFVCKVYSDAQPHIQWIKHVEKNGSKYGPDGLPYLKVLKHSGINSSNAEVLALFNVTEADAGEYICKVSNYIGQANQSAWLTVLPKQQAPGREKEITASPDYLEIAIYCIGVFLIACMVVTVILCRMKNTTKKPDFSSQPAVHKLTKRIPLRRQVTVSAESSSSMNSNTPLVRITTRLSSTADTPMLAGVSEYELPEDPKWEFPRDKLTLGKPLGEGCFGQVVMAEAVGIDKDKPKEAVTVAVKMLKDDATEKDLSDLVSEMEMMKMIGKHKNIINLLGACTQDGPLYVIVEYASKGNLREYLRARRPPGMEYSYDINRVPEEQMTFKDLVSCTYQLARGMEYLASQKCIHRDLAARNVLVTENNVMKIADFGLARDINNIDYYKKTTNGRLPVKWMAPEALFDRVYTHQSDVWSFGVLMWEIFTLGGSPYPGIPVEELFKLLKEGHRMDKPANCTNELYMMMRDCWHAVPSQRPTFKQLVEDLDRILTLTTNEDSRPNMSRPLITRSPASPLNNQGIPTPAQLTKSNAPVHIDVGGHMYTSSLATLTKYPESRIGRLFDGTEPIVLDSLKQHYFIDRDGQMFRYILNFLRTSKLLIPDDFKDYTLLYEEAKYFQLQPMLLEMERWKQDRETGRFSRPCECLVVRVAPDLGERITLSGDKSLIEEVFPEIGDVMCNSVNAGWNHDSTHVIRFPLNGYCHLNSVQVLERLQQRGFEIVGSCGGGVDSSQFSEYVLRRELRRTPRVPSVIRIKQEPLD

## CCN1CCN(c2ccc(Nc3cc(N(C)C(=O)Nc4c(Cl)c(OC)cc(OC)c4Cl)ncn3)cc2)CC1 [BGJ398]
[1]
  phosphorylation of FGFR: suppressed
  phosphorylation of MAPK: significantly suppressed
[2]; final concentration 0.2 μM, soft agar, FIG. 5 and FIG. 6
  anchorage independent growth: little suppressed
[2]; final concentration 1.0 μM, FIG. 7
  anchorage independent growth: suppressed
[3]
  anchorage independent growth: significantly suppressed
[4]
  anchorage independent growth: significantly suppressed

## CNC(=O)n1ccc2cc(Oc3ccnc(NC(=O)c4ccc(C5CCN(CCO)CC5)cc4)c3)c(OCCOC)cc21 [Compound A, 5-((2-(4-(1-(2-hydroxyethyl)piperidin-4-yl)benzamide)pyridin-4-yl)oxy)-6-(2-methoxyethoxy)-N-methyl-1H-indole-1-carboxamide 1.5 succinate]
[1]
  phosphorylation of FGFR: suppressed
  phosphorylation of MAPK: significantly suppressed
[5]
  RBW of the Compound A administration group/the RBW of the control group: ≥ 0.9

## CCN(CC)CCCCNc1ncc2cc(-c3cc(OC)cc(OC)c3)c(NC(=O)NC(C)(C)C)nc2n1 [PD173074]
[1]
  phosphorylation of FGFR: suppressed
  phosphorylation of MAPK: significantly suppressed
